Reference: patent US20100144725A1, “PESTICIDAL COMBINATIONS” (SYNGENTA CROP PROTECTION, INC., priority 2007, published 2010)

Legend:
[1] = tested on: Pyrenophora graminea; assay: Fungal growth assay, Pyrenophora graminea (leaf stripe of barley), microtiter plate, photometric; format: cell-based; conditions: 72 hrs
Description: The action to be expected E for a given active ingredient combination obeys the so-called COLBY formula and can be calculated as follows (COLBY, S. R. “Calculating synergistic and antagonistic responses of herbicide combination”. Weeds, Vol. 15, pages 20-22; 1967): If the action actually observed (O) is greater than the expected action (E), then the action of the combination is super-additive, i.e. there is a synergistic effect. Inhibiting of fungal growth of the following fungi are carried out by fungal growth assays (detailed below). Pyrenophora […] stripe of barley): Conidia of the fungus from cryogenic storage are directly mixed into nutrient broth (PDB potato dextrose broth). After placing a (DMSO) solution of the test compounds into a microtiter plate (96-well format) the nutrient broth containing the fungal spores is added. The test plates are incubated at 24 C and the inhibition of growth is measured photometrically after 72 hrs. The fungicide interactions in the combinations are calculated according to COLBY method, where A is thiabendazole and B is a mixture of tebuconazole and azoxystrobin in a mass ratio of 2:1. The results for A & B solo are shown in Table below and those for the combinations in a range of ratios in Table 1.

[2] = tested on: Rhizoctonia solani; assay: Fungal growth assay, Rhizoctonia solani (foot rot, damping-off), microtiter plate, photometric; format: cell-based; conditions: 72 hrs
Description: The action to be expected E for a given active ingredient combination obeys the so-called COLBY formula and can be calculated as follows (COLBY, S. R. “Calculating synergistic and antagonistic responses of herbicide combination”. Weeds, Vol. 15, pages 20-22; 1967): If the action actually observed (O) is greater than the expected action (E), then the action of the combination is super-additive, i.e. there is a synergistic effect. Inhibiting of fungal growth of the following fungi are carried out by fungal growth assays (detailed below). Rhizoctonia solani (foot rot, damping-off): Mycelial fragments of a newly grown culture of the fungus are directly mixed into nutrient broth (PDB potato dextrose broth). After placing a (DMSO) solution of the test compounds into a microtiter plate (96-well format) the nutrient broth containing the fungal spores is added. The test plates were incubated at 24 C and the inhibition of growth is measured photometrically after 72 hrs. The fungicide interactions in the combinations are calculated according to COLBY method, where C is ipconazole and D is a mixture of tebuconazole and azoxystrobin in a mass ratio of 2:1. The results for C & D solo are shown in Table below and those for the combinations in a range of ratios in Table 2.

Row | Structure (SMILES) | Observed control in % ([1]; A solo 0.004 ppm) | Observed control in % ([1]; A solo 0.008 ppm) | Observed control in % ([1]; A solo 0.016 ppm) | Observed control in % ([1]; A solo 0.031 ppm) | Observed control in % ([1]; A solo 0.063 ppm) | Observed control in % ([1]; A solo 0.125 ppm) | Observed control in % ([1]; A solo 0.25 ppm) | Observed control in % ([1]; A solo 0.5 ppm) | Observed control in % ([1]; A solo 1.0 ppm) | Observed control in % ([1]; A solo 2.0 ppm) | Observed control in % ([2]; C solo 0.004 ppm) | Observed control in % ([2]; C solo 0.008 ppm) | Observed control in % ([2]; C solo 0.016 ppm) | Observed control in % ([2]; C solo 0.031 ppm) | Observed control in % ([2]; C solo 0.063 ppm) | Observed control in % ([2]; C solo 0.125 ppm) | Observed control in % ([2]; C solo 0.25 ppm) | Observed control in % ([2]; C solo 0.5 ppm) | Observed control in % ([2]; C solo 1.0 ppm) | Observed control in % ([2]; C solo 2.0 ppm)
1 | c1ccc2[nH]c(-c3cscn3)nc2c1 [A, thiabendazole] | 0% | 0% | 0% | 0% | 0% | 1% | 10% | 25% | 29% | 22% |  |  |  |  |  |  |  |  |  | 
2 | CC(C)C1CCC(Cc2ccc(Cl)cc2)C1(O)Cn1cncn1 (centres unmarked) [C, ipconazole] |  |  |  |  |  |  |  |  |  |  | 9% | 3% | 0% | 7% | 0% | 0% | 2% | 5% | 0% | 9%
